Measurements as given in patent US11396517B1, “Exo-aza spiro inhibitors of menin-MLL interaction” (Janssen Pharmaceutica NV, priority 2017, dated 2022).

Biological target: T1, menin (Homo sapiens, UniProt O00255, T541A)
T1 construct: Menin (a.a. 1-610-6×his tag)
T1 sequence (O00255 with tags, fused parts or gaps T541A): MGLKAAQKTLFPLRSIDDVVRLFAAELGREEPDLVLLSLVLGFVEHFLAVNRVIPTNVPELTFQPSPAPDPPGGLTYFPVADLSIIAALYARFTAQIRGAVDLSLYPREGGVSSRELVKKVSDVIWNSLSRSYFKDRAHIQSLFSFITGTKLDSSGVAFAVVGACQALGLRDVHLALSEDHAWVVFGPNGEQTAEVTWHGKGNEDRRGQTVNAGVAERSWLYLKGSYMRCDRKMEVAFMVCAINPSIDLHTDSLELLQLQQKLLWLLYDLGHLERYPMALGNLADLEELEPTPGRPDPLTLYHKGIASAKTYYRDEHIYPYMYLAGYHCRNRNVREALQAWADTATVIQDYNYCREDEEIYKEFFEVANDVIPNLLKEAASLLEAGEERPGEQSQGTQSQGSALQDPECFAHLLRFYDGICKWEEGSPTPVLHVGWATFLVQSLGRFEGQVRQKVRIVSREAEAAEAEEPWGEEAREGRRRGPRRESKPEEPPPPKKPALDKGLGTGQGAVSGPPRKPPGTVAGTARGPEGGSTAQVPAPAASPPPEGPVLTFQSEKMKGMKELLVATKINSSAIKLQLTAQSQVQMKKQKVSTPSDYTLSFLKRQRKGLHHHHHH
Assay: Menin/MLL homogenous time-resolved fluorescence (HTRF) assay
Format: binding
Conditions: location 1; read-out: (2) location 1 Menin HTRF assay (IC50 (nM))
Method: 2) Menin/MLL Homogenous Time-Resolved Fluorescence (HTRF) Assay
To an untreated, white 384-well microtiter plate was added 40 nL 200× test compound in DMSO and 4 μL 2× terbium chelate-labeled menin (vide infra for preparation) in assay buffer (40 mM Tris HCl, pH 7.5, 50 mM NaCl, 1 mM DTT and 0.05% Pluronic F-127). After incubation of test compound and terbium chelate-labeled menin for 5 min at ambient temperature, 4 μL 2× FITC-MBM1 peptide (FITC-β-alanine-[…]-NH2 (SEQ ID NO: 23)) in assay buffer was added, the microtiter plate centrifuged at 1000 rpm for 1 min and the assay mixtures incubated for 15 min at ambient temperature. The relative amount of menin.FITC-MBM1 complex present in an assay mixture is determined by measuring the homogenous time-resolved fluorescence (HTRF) of the terbium/FITC donor/acceptor fluorphore pair using a BMG Pherastar plate reader (ex. 337 nm/terbium em. 490 nm/FITC em. 520 nm) at ambient temperature. The degree of fluorescence resonance energy transfer (the HTRF value) is expressed as the ratio of the fluorescence emission intensities of the FITC and terbium fluorophores (Fern 520 nm/Fem 490 nm). The final concentrations of reagents in the binding assay are […] terbium chelate-labeled menin (location 2), 75 nM FITC-MBM1 peptide and 0.5% DMSO in assay buffer. Dose-response titrations of test compounds are conducted using an 11 point, three-fold serial dilution scheme, starting typically at 25 μM (location 1) or starting typically at 10 μM (location 2).
Compound potencies were determined by first calculating % inhibition at each compound concentration according to equation 1: % inhibition=((HC−LC)−(HTRF^compound−LC))/(HC−LC))*100 (Eqn 1)
Where LC and HC are the HTRF values of the assay in the presence or absence of a saturating concentration of a compound that competes with FITC-MBM1 for binding to menin, and HTRF^compound is the measured HTRF value in the presence of the test compound. FTC and LC HTRF values represent an average of at least 16 replicates per plate.
Where Bottom and Top are the lower and upper asymptotes of the dose-response curve, respectively, IC50 is the concentration of compound that yields 50% inhibition of signal and h is the Hill coefficient.
Preparation of Terbium cryptate labeling of Menin: Menin (a.a. 1-610-6×his tag (“6×his” disclosed as SEQ ID NO: 3)) was labeled with terbium cryptate as follows. 2 mg of Menin was buffer exchanged into 1× phosphate buffered saline. 16 uM Menin was incubated with 4-fold molar excess NHS-terbium cryptate (Cisbio Bioassays, Bedford, Mass.) for 2 hours at room temperature. The labeled protein was purified away from free label by running the reaction over a Superdex 200 Increase 10/300 GL column at 0.75 ml/min. Peak fractions were collected, aliquoted and frozen at −80° C.

| IC50 [nM] | SMILES |
| --- | --- |
| 555 | CC(C)CN(C(=O)CCN1CCOCC1)C1CC2(CCN(c3ncnc4sc(CC(F)(F)F)cc34)C2)C1 (mixture of isomers) [Compound 52] |
| 472 | FC(F)(F)Cc1cc2c(N3CCC4(CCC(NCc5ccccc5)C4)C3)ncnc2s1 (single isomer, unassigned) [Compound 6] |

The remaining lines, values behind:

| SMILES | IC50 [nM] |
| --- | --- |
| N#CCc1ccc(C(=O)NC2CC3(CCN(c4ncnc5sc(CC(F)(F)F)cc45)C3)C2)cc1 (mixture of isomers) [Compound 10] | 843 |
| FC(F)(F)Cc1cc2c(N3CCC4(CCC(NCc5ccccc5)C4)C3)ncnc2s1 (single isomer, unassigned) [Compound 4] | 188 |

Same assay, conditions: location 2; read-out: (2) location 2 Menin HTRF assay (IC50 (nM))

| IC50 [nM] | SMILES |
| --- | --- |
| 150 | FC(F)(F)Cc1cc2c(N3CCC4(CC(Nc5cccc(Cl)c5)C4)C3)ncnc2s1 (mixture of isomers) [Compound 160] |
| 656 | Cc1ccccc1NC1CC2(CCN(c3ncnc4sc(CC(F)(F)F)cc34)C2)C1 (mixture of isomers) [Compound 165] |
| 224 | Cn1ncc2ccc(NC3CC4(CCN(c5ncnc6sc(CC(F)(F)F)cc56)C4)C3)cc21 (mixture of isomers) [Compound 206] |
| 210 | Cn1cnc2ccc(NC3CC4(CCN(c5ncnc6sc(CC(F)(F)F)cc56)C4)C3)cc21 (mixture of isomers) [Compound 207] |
| 348 | CNc1nc(N2CCC3(CC(Nc4ccc5oc(=O)n(CCN6CCN(S(C)(=O)=O)CC6)c5c4)C3)C2)c2cc(CC(F)(F)F)sc2n1 (mixture of isomers) [Compound 248] |
| 272 | CS(=O)(=O)N1CCN(CCn2c(=O)oc3cc(NC4CC5(CCN(c6ncnc7sc(CC(F)(F)F)cc67)C5)C4)ccc32)CC1 (mixture of isomers) [Compound 249] |
| 148 | O=c1ccc(NC2CC3(CCN(c4ncnc5sc(CC(F)(F)F)cc45)C3)C2)c[nH]1 (mixture of isomers) [Compound 305] |
| > 10000 | Cn1cc(NC2CC3(CCN(c4ncnc5sc(CC(F)(F)F)cc45)C3)C2)cn1 (mixture of isomers) [Compound 310] |
| 297 | CN1CCN(C(=O)c2ccc(NC3CC4(CCN(c5ncnc6sc(CC(F)(F)F)cc56)C4)C3)cc2)CC1 (mixture of isomers) [Compound 336] |
| 473 | N#Cc1cccc(S(=O)(=O)NC2CC3(CCN(c4ncnc5sc(CC(F)(F)F)cc45)C3)C2)c1 (mixture of isomers) [Compound 415] |
| 433 | O=S(=O)(NC1CC2(CCN(c3ncnc4sc(CC(F)(F)F)cc34)C2)C1)c1cccc(C(F)(F)F)c1 (mixture of isomers) [Compound 416] |
| 221 | O=S(=O)(NC1CC2(CCN(c3ncnc4sc(CC(F)(F)F)cc34)C2)C1)c1ccc(C(F)(F)F)cc1 (mixture of isomers) [Compound 417] |
| 576 | O=c1cc(NC2CC3(CCN(c4ncnc5sc(CC(F)(F)F)cc45)C3)C2)cc[nH]1 (mixture of isomers) [Compound 424] |
| 234 | CN(C1CC2(CCN(c3ncnc4sc(CC(F)(F)F)cc34)C2)C1)S(=O)(=O)c1cccc(C#N)c1 (mixture of isomers) [Compound 425] |
| > 10000 | CN(C1CC2(CCN(c3ncnc4sc(CC(F)(F)F)cc34)C2)C1)S(=O)(=O)c1ccc(C(F)(F)F)cc1 (mixture of isomers) [Compound 427] |
| 553 | Cc1nc(N2CC3(CCC(Nc4ccc(CC#N)cc4)C3)C2)c2cc(CC(F)(F)F)sc2n1 (racemic) [Compound 403] |
| 143 | FC(F)(F)Cc1cc2c(N3CCC4(CCC(NCc5ccccc5)C4)C3)ncnc2s1 (single isomer, unassigned) [Compound 6] |

Continued, molecule first:

| SMILES | IC50 [nM] |
| --- | --- |
| N#CCc1ccc(C(=O)NC2CC3(CCN(c4ncnc5sc(CC(F)(F)F)cc45)C3)C2)cc1 (mixture of isomers) [Compound 10] | 948 |
| Fc1ccccc1NC1CC2(CCN(c3ncnc4sc(CC(F)(F)F)cc34)C2)C1 (mixture of isomers) [Compound 156] | 155 |
| Fc1cccc(NC2CC3(CCN(c4ncnc5sc(CC(F)(F)F)cc45)C3)C2)c1 (mixture of isomers) [Compound 157] | 118 |
| FC(F)(F)Cc1cc2c(N3CCC4(CC(Nc5ccccc5Cl)C4)C3)ncnc2s1 (mixture of isomers) [Compound 159] | 199 |
| FC(F)(F)Cc1cc2c(N3CCC4(CC(Nc5ccc(Cl)cc5)C4)C3)ncnc2s1 (mixture of isomers) [Compound 161] | 101 |
| Cc1cccc(NC2CC3(CCN(c4ncnc5sc(CC(F)(F)F)cc45)C3)C2)c1 (mixture of isomers) [Compound 166] | 400 |
| Cc1ccc(NC2CC3(CCN(c4ncnc5sc(CC(F)(F)F)cc45)C3)C2)cc1 (mixture of isomers) [Compound 167] | 98.1 |
| N#CCc1cccc(NC2CC3(CCN(c4ncnc5sc(CC(F)(F)F)cc45)C3)C2)c1 (mixture of isomers) [Compound 173] | 127 |
| CN(CC1CC2(CCN(c3ncnc4sc(CC(F)(F)F)cc34)C2)C1)c1cnn(C)c1 (mixture of isomers) [Compound 197] | 2350 |
| Cc1noc2cc(NC3CC4(CCN(c5ncnc6sc(CC(F)(F)F)cc56)C4)C3)ccc12 (mixture of isomers) [Compound 215] | 62 |
| CN(C(=O)c1ccccc1)C1CC2(CCN(c3ncnc4sc(CC(F)(F)F)cc34)C2)C1 (mixture of isomers) [Compound 260] | > 10000 |
| CS(=O)(=O)N1CCN(CCn2c(=O)oc3ccc(NC4CC5(CCN(c6ncnc7sc(CC(F)(F)F)cc67)C5)C4)cc32)CC1 (mixture of isomers) [Compound 270] | 518 |
| FC(F)(F)Cc1cc2c(N3CCC4(CC(Nc5cn[nH]c5)C4)C3)ncnc2s1 (mixture of isomers) [Compound 309] | 339 |
| Cn1c(=O)[nH]c2ccc(NC3CC4(CCN(c5ncnc6sc(CC(F)(F)F)cc56)C4)C3)cc21 (mixture of isomers) [Compound 325] | 1690 |
| CN(C1CC2(CCN(c3ncnc4sc(CC(F)(F)F)cc34)C2)C1)S(=O)(=O)c1cccc(C(F)(F)F)c1 (mixture of isomers) [Compound 426] | 536 |
| FC(F)(F)Cc1cc2c(N3CC4(CCC(Nc5cn[nH]c5)C4)C3)ncnc2s1 (racemic) [Compound 277] | 949 |
| FC(F)(F)Cc1cc2c(N3CCC4(CCC(NCc5ccccc5)C4)C3)ncnc2s1 (single isomer, unassigned) [Compound 4] | 39.9 |
| N#CCc1ccc(C(=O)NC2CC3(CCN(c4ncnc5sc(CC(F)(F)F)cc45)C3)C2)cc1 (single isomer, unassigned) [Compound 11] | 3760 |
| N#CCc1ccc(C(=O)NC2CC3(CCN(c4ncnc5sc(CC(F)(F)F)cc45)C3)C2)cc1 (single isomer, unassigned) [Compound 12] | 730 |
| CN(C1CC2(CCN(c3ncnc4sc(CC(F)(F)F)cc34)C2)C1)S(=O)(=O)c1ccccc1 (single isomer, unassigned) [Compound 25] | 510 |
| CN(C1CC2(CCN(c3ncnc4sc(CC(F)(F)F)cc34)C2)C1)S(=O)(=O)c1ccccc1 (single isomer, unassigned) [Compound 26] | 311 |
| CS(=O)(=O)Nc1ccc(C(=O)NC2CC3(CCN(c4ncnc5sc(CC(F)(F)F)cc45)C3)C2)cc1 (single isomer, unassigned) [Compound 28] | > 10000 |
| CS(=O)(=O)Nc1ccc(C(=O)NC2CC3(CCN(c4ncnc5sc(CC(F)(F)F)cc45)C3)C2)cc1 (single isomer, unassigned) [Compound 29] | 316 |
| FC(F)(F)Cc1cc2c(N3CCC4(CCC(Nc5ccccc5)C4)C3)ncnc2s1 (single isomer, unassigned) [Compound 31] | 241 |
